Measured values published in publication PMC5562305, “Impact of novel palmitoylated prolactin-releasing peptide analogs on metabolic changes in mice with diet-induced obesity” (PLoS ONE, 2017).
Non-standard residues stand in square brackets, D forms with d. Residues, ends and D or L forms follow the SMILES beside them. NMeF = CN[C@@H](Cc1ccccc1)C(=O)O

Target: T1, human NPFF2 (Homo sapiens, UniProt Q9Y5X5)
T1 construct: purchased Perkin Elmer; host or cells: CHO-K1 cell membranes
Assay: Competitive binding of 125I-1DMe to human NPFF2 receptor membranes
Conditions: membranes of CHO-K1 cells overexpressing NPFF2, 0.1 nM radioligand, Cheng-Prusoff; mean ± SEM; SEM
Protocol: CHO-K1 cells expressing the GPR10 receptor (Thermo Fisher Scientific Inc., Waltham, MA, USA) were grown according to the manufacturer's instructions. Saturation and competitive binding experiments were performed according to the methods of Motulsky and Neubig. […] The experiments were performed on plated cells that were incubated for 60 min at 25°C. Non-specific binding was determined using 10^−5 M PrRP31. The binding assays involving human NPFF2 receptor membranes obtained from Perkin Elmer were performed as described in [18].
Data are presented as the means ± SEM. The competitive binding curves were plotted using GraphPad software (San Diego, CA, USA), and the best fits were compared for single-binding-site models (IC50 values were obtained from nonlinear regression analysis). Inhibition constants (Ki) were calculated from the IC50 values using the Cheng-Prusoff equation [23]. The concentration of the radioligand was 0.1 nM for cell membranes of CHO-K1 cells overexpressing NPFF2 and 0.03 nM for CHO-K1 cells overexpressing GPR10.

T1 sequence (Q9Y5X5 whole entry): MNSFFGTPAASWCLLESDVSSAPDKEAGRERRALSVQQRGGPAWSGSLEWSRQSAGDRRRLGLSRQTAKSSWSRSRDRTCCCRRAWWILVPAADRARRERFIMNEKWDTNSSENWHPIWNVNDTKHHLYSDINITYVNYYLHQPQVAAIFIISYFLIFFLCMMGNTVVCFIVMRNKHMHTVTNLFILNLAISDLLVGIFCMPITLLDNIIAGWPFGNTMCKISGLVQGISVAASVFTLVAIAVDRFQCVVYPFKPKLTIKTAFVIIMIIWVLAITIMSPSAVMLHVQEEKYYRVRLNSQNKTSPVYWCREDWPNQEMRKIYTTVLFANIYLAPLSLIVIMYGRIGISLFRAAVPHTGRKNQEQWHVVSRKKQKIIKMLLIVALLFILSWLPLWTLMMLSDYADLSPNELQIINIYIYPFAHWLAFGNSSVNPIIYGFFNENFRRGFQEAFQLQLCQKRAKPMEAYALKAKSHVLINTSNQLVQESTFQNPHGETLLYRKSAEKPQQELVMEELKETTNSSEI

Row | Ki | Structure (SMILES)
1 | 1.8 ± 0.54 nM | CC(C)C[C@H](NC(=O)[C@H](N)Cc1ccc(O)cc1)C(=O)N(C)[C@@H](Cc1ccccc1)C(=O)N[C@@H](CCC(N)=O)C(=O)N1CCC[C@H]1C(=O)N[C@@H](CCC(N)=O)C(=O)N[C@@H](CCCN=C(N)N)C(=O)N[C@@H](Cc1ccccc1)C(N)=O [1DMe, reference compound] (H-[dY]L[NMeF]QPQRF-NH2)
2 | 50 ± 24.3 nM | CC[C@H](C)[C@H](NC(=O)CNC(=O)[C@H](CCCNC(=N)N)NC(=O)[C@H](CO)NC(=O)[C@H](C)NC(=O)[C@H](Cc1ccc(O)cc1)NC(=O)[C@H](Cc1c[nH]c2ccccc12)NC(=O)[C@H](C)NC(=O)[C@@H]1CCCN1C(=O)[C@H](CC(N)=O)NC(=O)[C@@H](NC(=O)[C@H](CC(=O)O)NC(=O)[C@@H]1CCCN1C(=O)[C@@H](NC(=O)[C@H](CCCNC(=N)N)NC(=O)[C@@H](NC(=O)[C@H](CCC(=O)O)NC(=O)[C@H](CCSC)NC(=O)[C@H](CO)NC(=O)[C@H](Cc1c[nH]cn1)NC(=O)[C@H](CCCNC(=N)N)NC(=O)[C@H](Cc1c[nH]cn1)NC(=O)[C@@H](NC(=O)[C@H](CCCNC(=N)N)NC(=O)[C@@H](N)CO)[C@@H](C)O)[C@@H](C)CC)[C@@H](C)O)[C@@H](C)CC)C(=O)N[C@@H](CCCNC(=N)N)C(=O)N1CCC[C@H]1C(=O)N[C@H](C(=O)NCC(=O)N[C@@H](CCCNC(=N)N)C(=O)N[C@@H](Cc1ccccc1)C(N)=O)C(C)C [human PrRP31, reference compound]
